Assay: Human HepG2 cell viability assay in 384 well format
Type: toxicity, cell-based
Parameters: dose 125 nL, time 70.5 hour; concentration not given beside the values
Conditions: HepG2 cells, read-out: Inhibition

Structure (SMILES)	cytotoxicity at 70.5 h [%]
COc1ccccc1OC1CCN(C(=O)CCCN2CCOCC2)CC1	-9.29
O=C1CCCN1Cc1nc(-c2ccsc2)no1	19.8
O=C(Nc1cnccn1)[C@H]1CC[C@@H]2[C@@H](CCN2Cc2ccoc2)O1	25.7
CCOc1cc(Cl)ccc1CNC(=O)N1CCCC(CO)C1 (stereo not given)	-9.17
CC(C)c1ncc(CN2CCOC(C(=O)Nc3ccccc3)C2)cn1 (stereo not given)	-9.69
O=C(NCc1ccccn1)c1cnc(C2CCCN2)cn1 (stereo not given)	-4.69
COCCNC(=O)Cn1ccc2ccc(F)cc21	-3.63
O=C(c1ccco1)N1CCC(CSCc2ccco2)CC1	-7.2
N#Cc1ccc(C(=O)NCCCNc2ccc(C(F)(F)F)cn2)cc1	0.522
NC(=O)CNC(=O)c1ccc(CNCc2ccc(F)cc2F)cc1	-23.7
O[C@H]1Cc2ccccc2[C@H]1Nc1ncccc1C(F)(F)F	-4.3
Cc1nc2c(c(NCCc3nccs3)n1)CCN(CC1CC1)CC2	-14.3
CC(C)c1ncncc1C(=O)N1CCN(Cc2cscn2)CC1	22.6
CN(Cc1cc[nH]n1)C(=O)c1ccc2c(c1)nc(N1CC[C@H](O)C1)n2C	-1.12
O=C(c1ccoc1)N1CCC2(C1)CN(c1ncccn1)C2	0.524
COc1ncnc2c1CCN(C(=O)NCc1cccnc1)CC2	1.49
CCc1nc(C)c(C(C)N(C)CCOC)s1 (stereo not given)	10.1
Cc1nnc([C@@]23CCO[C@@H]2CCN(Cc2scnc2C)C3)o1	-10.2
CN(CCCc1cc(-c2ccc(F)cc2)n(C)n1)CC(=O)NC(N)=O	-8.03
Cn1ccc(C(=O)N2CCC(Cc3cccc4ncccc34)CC2)n1	-6.71
FC(F)(F)c1cc(-c2cccs2)nc(N2CCN3CCCC3C2)n1 (stereo not given)	-13.6
O=C(O)C(c1ccc2c(c1)OCO2)N1CCC(O)(c2cccnc2)CC1 (stereo not given)	0.616
CN(Cc1ccsc1)Cc1ccc(C2CCCCO2)o1 (stereo not given)	-3.14

Structure (SMILES)	cytotoxicity at 70.5 h [%]
Cc1cccc(C2(NC(=O)CCN3C(=O)CCC3=O)CCCC2)c1	-6.61
COC(=O)[C@@H]1Cc2ncn(C)c2CN1S(=O)(=O)c1ccc(Cl)cc1	10.2
Cc1noc(NC(=O)c2ccc(C#N)cc2)n1	-7.88
Cc1occc1C(=O)NCC(=O)N(C)CCCOc1ccc(F)cc1	-6.91
Fc1ccc(-c2nnc(CN3CCOC(Cn4cncn4)C3)o2)cc1 (stereo not given)	-28.7
CC(=O)NC1CCN(c2cc(C3CCNCC3)nc(C)n2)C1 (stereo not given)	-6.6
CCc1nc(CC)n(CC(=O)N(C)Cc2ccc(F)cc2)n1	-4.65
Cn1c(CN2CCCC(N3CCCCCC3)C2)cc(=O)n(C)c1=O (stereo not given)	-4.65
O=C(c1n[nH]c(=O)c2ccccc12)N1CCCCC1c1ccn[nH]1 (stereo not given)	-8.63
Cc1c[nH]nc1C1CCCN1Cc1ncc[nH]1 (stereo not given)	-2.22
Cc1cc(C(N)=O)ccc1NC(=O)c1nc(N2CCCC2)ncc1Cl	-4.63
Cc1cc(C)n(C2CCCN(C(=O)CCCc3ccccn3)C2)n1 (stereo not given)	-0.29
CC(=O)Nc1nc(-c2ccccc2)c[nH]1	3.67
Cc1ccc(-c2nnc(C(C)NCCn3cc(C)cn3)o2)cc1 (stereo not given)	-14.8
CSc1ccc(C2CC(=O)Nc3c2c(=O)[nH]n3C(C)C)cc1 (stereo not given)	-9.28
CC1(CNC(=O)NCc2ccsc2)CCCS1 (stereo not given)	-8.93
CN1CCN(C(=O)c2cc3sccc3n2Cc2ccccc2F)CC1	-9.9
CCC1CN(CC(=O)Nc2sccc2C#N)CCO1 (stereo not given)	-8.24
Cc1cc(F)ccc1-n1cc(O)c(C(=O)NCC[S+](C)[O-])n1 (stereo not given)	8.16
COc1cccc(CCNC(=O)CN2CCN(C)CC2C)c1 (stereo not given)	-17.1
CC(C)c1nc(CNC2CCCN(c3cccnn3)C2)no1 (stereo not given)	21
CN(C)C(=O)c1nn(C)c2c1CN(Cc1ccoc1)C2	-7.04
C=Cn1ncc(CN2C[C@@H]3C[C@@H](O)CN3C[C@@H]2Cc2ccccc2)c1C	1.04

Structure (SMILES)	cytotoxicity at 70.5 h [%]
Cn1nc(C2CCN(CC(=O)NC3CC3)CC2)n(-c2ccccc2)c1=O	-8.96
COCC1CC2(CCN(Cc3ccccn3)CC2)CN1C(C)C (stereo not given)	-7.51
CC(C)(C)C(=O)NCCc1cc2nc(-c3ccncc3)ccn2n1	1.86
O=C1OC2(CCNCC2)CN1CC(=O)N1CCCC1c1nccs1 (stereo not given)	-7.02
CC1CCc2nc(O)c(C(=O)NCCc3cccs3)cc2C1 (stereo not given)	-7.76
CCc1nc(CN(C)c2nccc(N3CCCC(O)C3)n2)no1 (stereo not given)	-0.51
CC(C)=CCN1CCC2(CC1)CC(=O)N(Cc1cc(F)cc(F)c1)C2	2.51
Cc1noc(CNc2cccc(C(=O)N3CCCC(O)C3)c2)n1 (stereo not given)	-6.36
CCc1nc(CN2CCCN(C(=O)CCc3ccco3)CC2)cs1	27.3
Cc1ccc2nc(CNCCCN3CCCC3)cc(O)c2c1	-9.2
Cc1nccc(CN2CCC(c3nnsc3S(C)(=O)=O)CC2)n1	-21.3
CNC(=O)c1ccc(C(=O)N2CCCC(n3ccnc3)C2)cn1 (stereo not given)	-15.9
CC(=O)NC[C@H]1COCc2nc3cc(S(C)(=O)=O)ccc3n21	-0.348
c1cncc(COC[C@@H]2CCC[C@@]23CNCCO3)c1	8.38
O=C(NC1CCCc2nc(N3CCOCC3)ncc21)C1CCCC1 (stereo not given)	-4.32
NS(=O)(=O)c1cnn(CCC(=O)N(C2CCCCC2)C2CC2)c1	-3.97
Nc1nc2c(s1)C(c1c(F)cccc1Cl)CC(=O)N2 (stereo not given)	1.77
Cc1cc(C(=O)N2CCc3ncnc(N4CCSCC4)c3CC2)[nH]n1	-5.82
Cn1nnc2cc(C(=O)NS(=O)(=O)c3ccc(F)cc3)ccc21	-3.7
CC(C)(C)NC(=O)CN1CCCN(c2ccc(C#N)cn2)CC1	-6.98
CCN(CC)c1ccc(CNC(=O)C2(C)CCOCC2)cc1F	14.4
CC(C)N1CC(C(=O)NCCc2csc(-c3ccncc3)n2)CC1=O (stereo not given)	34.8
CN(C[C@@H]1CCC[C@@H]2CN(c3ncccn3)C[C@@H]21)C1CC1	-1.63

Structure (SMILES)	cytotoxicity at 70.5 h [%]
COc1nn(C)cc1-c1nnc(SCc2cccnc2)n1C	-5.69
CCC(=O)N1CCC2(CC1)COCCN2Cc1ccc(F)cc1	-10.7
CCn1cc(-c2cc(C(F)(F)F)nc(NC3CCCC3)n2)c(C)n1	-6.79
COc1ccc(CSc2nnc(N)n2C2CC2)cc1F	24.8
CCOc1ccc(Cl)cc1CCNC(=O)Cn1nc(C)ccc1=O	7.64
Cc1cc(C)n(CC2CCCN2C(=O)c2ccc3c(c2)OCCO3)n1 (stereo not given)	-12.8
O=C(c1cc(CC2(NCC3CCCCC3)COC2)no1)N1CCCCC1	-6.68
Cc1cc(C)n(CC(C)Nc2ncnc3c2CCNC3)n1 (stereo not given)	-11.9
CCS(=O)(=O)N1CC[C@]2(C[C@@H](OCC3CC3)CO2)C1	-8.16
Fc1cccc(-n2cccn2)c1NCc1nnc(C2CC2)o1	-2.54
Cn1c(N)nnc1SCc1ccc(Cl)cc1Br	-11.2
COc1ccc(CN2C[C@H]3CN(Cc4ccncc4)C(=O)[C@H]3C2)cc1	-7.43
O=C(Cc1ccc2c(c1)OCCO2)N1CCCC(n2cncn2)C1 (stereo not given)	-9.12
Cc1cccc(=O)n1CCC(=O)N1CC[C@](C)(O)[C@H](C)C1	-9.5
CCS(=O)(=O)NCC(=O)NC(c1cc(C)sc1C)C(C)C (stereo not given)	-0.761
CN(C)CC(=O)N1C[C@@H](Oc2ccccn2)[C@H]2OCCC[C@H]21	9.63
O=C(c1ccoc1)N1CC[C@H]2OCC[C@@]2(COc2ncccc2F)C1	-9.01
O=C(O)c1cc(-c2ccncc2)cc(S(=O)(=O)N2CCCCCC2)c1	-18.9
CN(CCN1CCOC1=O)CC(=O)Nc1ccc(Cl)c(Cl)c1	-20.1
CCCn1nc(C(=O)NCc2nnc3n2CCC3)ccc1=O	22.5
CC(C)C(=O)N1CCC2(CC1)COCCN2Cc1ccc(F)cc1	-2.33
COc1ccc(CC(=O)N2CCCC2Cn2cccn2)cc1F (stereo not given)	-9.94
CCCNC(=O)C1CCN(CC(O)c2ccccc2C(F)(F)F)CC1 (stereo not given)	0.668

Structure (SMILES)	cytotoxicity at 70.5 h [%]
O=C(c1c[nH]cn1)N1CCC(F)(F)C2(CCN(c3cccc(F)c3)C2)C1 (stereo not given)	-7.39
CCN(CC)C(=O)CN1CCCC1c1nc(C)c2c(n1)N(C)C(=O)CC2 (stereo not given)	-7.02
CN(Cc1nc2ccsc2c(=O)[nH]1)CC1CCCCC1	-6.1
OCCNc1cc(N2CCC(n3cc(C4CCCC4)nn3)CC2)ncn1	-10.7
Fc1ccc(CNCCn2cccn2)cc1F	16.8
c1cncc(-c2ccnn2CN2CCOCC2)c1	0.876
CNc1cc(N2CCCC2CNCc2cccc(C#N)c2)ncn1 (stereo not given)	1.28
CC(C)C(C)N(C(=O)Cn1nc2n(c1=O)CCCCC2)C1CC1 (stereo not given)	-11.4
CCNC(=O)NCc1ccnc(N(C)C)n1	-5.28
O=C(C1CCCCC1)N1CC2(CCNCC2)C1	1.58
CC(C)c1nc(C2CCCN(C(=O)Cc3cccnc3)C2)no1 (stereo not given)	-16.6
Cc1nn(C)c(C)c1CN(C)c1nc(C2CCCC2)nc2c1cnn2C	8.68
Cn1nc(C2CC2)c2c1NC(=O)CC2c1ccc(CN2CCCCC2)s1 (stereo not given)	-3.05
COc1ccc(Cl)cc1C(=O)NCCNc1cnccn1	-3.57
Cc1cc(N2CCCC(c3n[nH]c4ncccc34)C2)ncn1 (stereo not given)	-4.69
Cc1cc(C)n(CC2CCCN2Cc2cccc(C#N)c2)n1 (stereo not given)	-3.89
Nc1ccc(-c2cnc(C3CCCN3)cn2)cn1 (stereo not given)	-8.2
O=C(O)c1ccccc1-c1ccc(CNC(=O)C2CCOCC2)cc1	-4.99
Cc1ccc(CN2C[C@@H]3COC[C@H](C(=O)N4CCCCO4)[C@@H]3C2)o1	-8.64
Cc1ccc(C(=O)N2CCN(c3ncnc4nc(N)ccc34)CC2)cc1	20.2
O=C(Cc1ccccc1)N1CCC2(CC1)CC(Nc1cnccn1)CO2 (stereo not given)	-8.13
CC(=O)c1ccc(Cl)c(Cl)c1OCC(=O)NC(N)=O	14.2
CNC(=O)CN(C)C(=O)c1cc(Cl)c(Cl)n1C	17.1

Reference: ChEMBL document CHEMBL3507680, “University of Dundee, Gates Library screen for HepG2 cell viability”
